Key:
[1] = tested on: sera SARS-green, SARS-yellow, 1a, 1b, 2, 6, 37, 62 and London; format: binding, human
[2] = tested on: rabbit serum obtained by immunizing with SARS-CoV strain Frankfurt 1; format: binding
[3] = tested on: control serum LUMC (pooled serum of ten healthy hospital workers); format: binding, human
[4] = tested on: control serum Blood-bank (commercial negative donor pooled serum); format: binding, human

Sequence | Recognition of the peptide by sera of individuals infected by SARS-CoV, form recognized [1] | Rabbit serum linear peptides [2] | Rabbit serum looped peptides [2] | Control serum LUMC linear peptides [3] | Control serum LUMC looped peptides [3] | Control Serum Blood-Bank Looped peptides [4] | Control serum Blood-bank linear peptides [4]
LTITRMEDAMGQGQN | only recognized in looped form | 0.3 | 0.3 |  |  |  | 
NQTNVVPPALHLVDP | recognized in linear and in looped form | 0.1 | 0.4 |  |  |  | 
VVQMTKLATTEELPD | recognized in linear and in looped form | 0.3 | 0.6 |  |  |  | 
PALHLVDPQIQLTIT | recognized in linear and in looped form | 1.3 | 0.4 |  |  |  | 
PNQTNVVPPALHLVD | recognized in linear and in looped form | 0.4 | 0.2 |  |  |  | 
VQRCASNKPHVLEDP | recognized in linear and in looped form | 0.1 | 0.5 |  |  |  | 
DFYLCFLAFLLFLVL |  | 0.3 | 0.4 | 0.4 | 0.6 | 0.6 | 0.7
MNELTLIDFYLCFLA |  | 0.4 | 0.5 | 1.1 | 0.9 | 0.5 | 0.7
LCFLAFLLFLVLIML |  | 0.2 | 0.3 | 0.4 | 0.4 | 0.7 | 0.7
VLIMLIIFWFSLEIQ |  | 0.4 | 0.2 | 0.7 | 0.4 | 0.7 | 0.8
LFLVLIMLIIFWFSL |  | 0.4 | 0.5 | 0.4 | 0.4 | 0.8 | 0.8
FLLFLVLIMLIIFWF |  | 0.5 | 0.7 | 0.3 | 0.5 | 0.6 | 0.9
FLAFLLFLVLIMLII |  | 0.3 | 0.7 | 0.5 | 0.4 | 0.7 | 0.7
CFLAFLLFLVLIMLI |  | 0.0 | 0.6 | 0.3 | 0.4 | 0.8 | 0.6
LLFLVLIMLIIFWFS |  | 0.5 | 0.6 | 0.4 | 0.4 | 0.9 | 0.9
TLIDFYLCFLAFLLF |  | 0.4 | 0.4 | 0.8 | 0.8 | 0.4 | 0.7
FLVLIMLIIFWFSLE |  | 0.4 | 0.6 | 0.7 | 0.7 | 0.8 | 0.9

— US20060154243A1 (priority 2003, published 2006)
